# System: TNF-α and IL-10 amounts in plasma of LPS-injected BALB/c mice
# Experiment: Endotoxin-induced Cytokine Production
# Assay type: in vivo
# Conditions: 320 mg/kg, administered 30 minutes before LPS 0.1 mg/kg i.v.; plasma one hour after LPS; ELISA
# Experimental: Endotoxin-induced Cytokine Production
# BALB/c mice (male, 7 weeks old) were injected i.v. with 0.1 mg/kg of lipopolysaccharides (LPS) in a total volume of 0.2 ml saline. Heparinized blood samples were taken one hour after LPS injection and plasma was collected by centrifugation. TNF-α (inflammatory cytokine) and IL-10 (anti-inflammatory cytokine) amounts in plasma were assayed by ELISA. Test compounds were administered 30 minutes before LPS injection.
Structure (SMILES),IL-10 [pg/mL],TNF-α [ng/mL]
"NC(=O)c1cn(C(CO)CCc2ccccc2)cn1 (stereo not drawn) [Example 1, 1-(1-Hydroxy-4-phenyl-2-butyl)imidazole-4-carboxamide]",137 ± 14,3.1 ± 0.5

# System: not given
# Experiment: not given
# Conditions: not given
row,melting point,Structure (SMILES)
1,92 to 95 °C,CCOC(=O)c1cccc(CCC(CO)n2cnc(C(N)=O)c2)c1 (stereo not drawn)
2,160 °C,CCCC(CO)n1cnc(C(N)=O)c1 (stereo not drawn)
3,147.5 to 149.5 °C,NC(=O)c1cn(C(CO)COc2ccccc2)cn1 (stereo not drawn)
4,138 to 141 °C,Cc1ccc(CCC(CO)n2cnc(C(N)=O)c2)cc1 (stereo not drawn)

# Second part, the compound before the results:
row,Structure (SMILES),melting point
1,COC(=O)Cc1cccc(CCC(CO)n2cnc(C(N)=O)c2)c1 (stereo not drawn),138.5 to 141 °C
2,N#Cc1cn(C(CO)CCc2ccccc2)cn1 (stereo not drawn),111 to 115 °C
3,Cc1ccccc1CC[C@H]([C@H](C)O)n1cnc(C(N)=O)c1,60 to 62 °C
4,C[C@H](O)[C@@H](CCc1cccc(Cl)c1Cl)n1cnc(C(N)=O)c1,70 to 75 °C
5,NC(=O)c1cn(C(CO)c2ccccc2)cn1 (stereo not drawn),147 to 149 °C
6,CCCCCCC(CO)n1cnc(C(N)=O)c1 (stereo not drawn),97.5 to 100.5 °C
7,NC(=O)c1cn(C(CO)CCc2cccc(C(F)(F)F)c2)cn1 (stereo not drawn),103 to 106 °C
8,Nc1nc(-c2cn([C@H](CO)CCc3ccccc3)cn2)n[nH]1,80 °C (dec.)
9,"NC(=O)c1cn(C(CO)CCc2ccccc2)cn1 (stereo not drawn) [Example 1, 1-(1-Hydroxy-4-phenyl-2-butyl)imidazole-4-carboxamide]",127 to 129.5 °C

# Source: patent US6359145B1, “Imidazole compounds” (Fujisawa Pharmaceutical Co., Ltd., priority 1998, dated 2002)
